Experimental data from US20230247994A1, “HETEROCYCLENE DERIVATIVES AS PEST CONTROL AGENTS” (Bayer Aktiengesellschaft, priority 2020, published 2023).

Experiments:
Type in all cases: in vivo
[1] = system: Diabrotica balteata; assay: Diabrotica balteata spray test (germinated wheat grains); details: 168 h, application rate 100 g/ha (=32 μg/cavity), after 7 days, beetle larvae on wheat, 100% = all wheat plants grown as in untreated, uninfected control, read-out: efficacy in %
Description: Diabrotica Balteata—Spray Test Solvent: 78 parts by weight of acetone • • 1.5 parts by weight of dimethylformamide Emulsifier: alkylaryl polyglycol ether An appropriate active ingredient formulation is produced by dissolving 1 part by weight of active ingredient with the stated parts by weight of solvent and making the solution up to the desired concentration with water containing an emulsifier concentration of 1000 ppm. Further test concentrations are produced by diluting the formulation with emulsifier-containing water. Pre-swollen wheat grains (Triticum aestivum) are incubated in a multiwell plate filled with agar and a little water for one day (5 seed grains per cavity). The germinated wheat grains are sprayed with an active ingredient formulation of the desired concentration. Subsequently, each cavity is infected with 10-20 beetle larvae of Diabrotica balteata. After 7 days, efficacy in % is determined. 100% means that all wheat plants have grown as in the untreated, uninfected control; 0% means that no wheat plant has grown.

[2] = system: Nezara viridula; assay: Nezara viridula spray test (barley plants); details: 96 h, application rate 500 g/ha, larvae, after 4 days, 100% = all shield bugs killed, read-out: efficacy in %
Description: Nezara viridula—Spray Test Solvent: 78.0 parts by weight of acetone • • 1.5 parts by weight of dimethylformamide Emulsifier: alkylaryl polyglycol ether An appropriate active ingredient formulation is produced by dissolving 1 part by weight of active ingredient with the stated parts by weight of solvent and making the solution up to the desired concentration with water containing an emulsifier concentration of 1000 ppm. Further test concentrations are produced by diluting the formulation with emulsifier-containing water. Barley plants (Hordeum vulgare) are sprayed with an active ingredient formulation of the desired concentration and are infected with larvae of the Southern green shield bug (Nezara viridula). After 4 days, efficacy in % is determined. 100% means that all of the shield bugs have been killed; 0% means that none of the shield bugs have been killed.

[3] = system: Nilaparvata lugens; assay: Nilaparvata lugens test (rice plants); details: application rate 500 g/ha, spray, after 4 days, 100% = all planthoppers killed
Description: Nilaparvata lugens Test Solvent: 78.0 parts by weight of acetone • • 1.5 parts by weight of dimethylformamide Emulsifier: alkylaryl polyglycol ether An appropriate active ingredient formulation is produced by dissolving 1 part by weight of active ingredient with the stated parts by weight of solvent and making the solution up to the desired concentration with water containing an emulsifier concentration of 1000 ppm. Further test concentrations are produced by diluting the formulation with emulsifier-containing water. Rice plants (Oryza sativa) are sprayed with the active ingredient formulation of the desired concentration and then infected with the brown planthopper (Nilaparvata lugens). After 4 days, efficacy in % is determined. 100% means that all of the planthoppers have been killed; 0% means that none of the planthoppers have been killed.

[4] = system: Spodoptera frugiperda; assay: Spodoptera frugiperda spray test (maize leaf disks); details: foliar, 168 h, caterpillars, after 7 days, 100% = all caterpillars killed, read-out: efficacy in %; for pest or weed control at 100 g/ha: application rate 100 g/ha
Description: Spodoptera frugiuerda—Spray Test
Solvent: 78.0 parts by weight of acetone • • 1.5 parts by weight of dimethylformamide
Emulsifier: alkylaryl polyglycol ether
An appropriate active ingredient formulation is produced by dissolving 1 part by weight of active ingredient with the stated parts by weight of solvent and making the solution up to the desired concentration with water containing an emulsifier concentration of 1000 ppm. Further test concentrations are produced by diluting the formulation with emulsifier-containing water.
Leaf disks of maize (Zea mays) are sprayed with an active ingredient formulation of the desired concentration and, after drying, populated with caterpillars of the fall armyworm (Spodopterafrugiperda).
After 7 days, efficacy in % is determined. 100% means that all of the caterpillars have been killed; 0% means that none of the caterpillars have been killed.

[5] = system: Myzus persicae; assay: Myzus persicae spray test (bell pepper plants); details: application rate 20 ppm, after 6 days, 100% = all aphids killed
Description: Myzus persicae—spray test Solvent: 14 parts by weight of dimethylformamide Emulsifier: alkylaryl polyglycol ether An appropriate active ingredient formulation is produced by dissolving 1 part by weight of active ingredient with the stated parts by weight of solvent and making the solution up to the desired concentration with water containing an emulsifier concentration of 1000 ppm. Further test concentrations are produced by diluting the formulation with emulsifier-containing water. If the addition of ammonium salts or/and penetration enhancers is required, these are each added in a concentration of 1000 ppm to the formulation solution. Bell pepper plants (Capsicum annuum) severely infested with the green peach aphid (Myzus persicae) are treated by spraying with the active ingredient formulation in the desired concentration. After 6 days, the kill in % is determined. 100% means that all of the aphids have been killed; 0% means that none of the aphids have been killed.

[6] = system: Meloidogyne incognita; assay: Meloidogyne incognita test (lettuce, gall formation); details: application rate 20 ppm, after 14 days, 100% = no galls found
Description: Meloidogyne Incognita Test Solvent: 125.0 parts by weight of acetone An appropriate active ingredient formulation is produced by mixing 1 part by weight of active ingredient with the stated amount of solvent and diluting the concentrate to the desired concentration with water. Vessels are filled with sand, active ingredient solution, an egg/larvae suspension of the southern root-knot nematode (Meloidogyne incognita) and lettuce seeds. The lettuce seeds germinate and the plants develop. The galls develop on the roots. After 14 days, the nematicidal efficacy in % is determined by the formation of galls. 100% means that no galls were found; 0% means that the number of galls on the treated plants corresponds to the untreated control.

[7] = system: Myzus persicae; assay: Myzus persicae oral test; details: application rate 20 ppm, after 5 days, 100% = all aphids killed
Method: Myzus persicae—Oral Test Solvent: 100 parts by weight of acetone An appropriate active ingredient formulation is produced by dissolving 1 part by weight of active ingredient with the specified parts by weight of solvent and making the solution up to the desired concentration with water. 50 μl of the active ingredient formulation is transferred into microtiter plates and made up to a final volume of 200 μl with 150 μl of IPL41 insect medium (33%+15% sugar). Subsequently, the plates are sealed with parafilm, which a mixed population of green peach aphids (Myzus persicae) within a second microtiter plate is able to puncture and imbibe the solution. After 5 days, efficacy in % is determined. 100% means that all of the aphids have been killed; 0% means that none of the aphids have been killed.

| Compound | pest or weed control at 100 g/ha [1] | pest or weed control at 500 g/ha [2] | efficacy in % [3] | pest or weed control at 100 g/ha [4] | kill in % (efficacy) [5] | nematicidal efficacy in % (formation of galls) [6] | efficacy in % [7] | pest or weed control at 500 g/ha ([4]; application rate 500 g/ha) |
| --- | --- | --- | --- | --- | --- | --- | --- | --- |
| CCS(=O)(=O)c1c(-c2nc3cc4c(cc3n2C)OC(F)(F)C(F)(F)O4)nc(-c2cccc(Cl)n2)n1C [Example I-21, 2-[2-(6-Chloropyridin-2-yl)-5-(ethylsulfonyl)-1-methyl-1H-imidazol-4-yl]-6,6,7,7-tetrafluoro-1-methyl-6,7-dihydro-1H-[1,4]dioxino[2,3-f]benzimidazole] | 100% | 100% | 90% | 100% |  |  |  |  |
| CCS(=O)(=O)c1c(-c2nc3cc4c(cc3n2C)OC(F)(F)C(F)(F)O4)nc(C2CC2)n1C [Example I-9, 2-[2-Cyclopropyl-5-(ethylsulfonyl)-1-methyl-1H-imidazol-4-yl]-6,6,7,7-tetrafluoro-1-methyl-6,7-dihydro-1H-[1,4]dioxino[2,3-f]benzimidazole] | 100% |  |  | 83% | 99% |  |  |  |
| CCS(=O)(=O)c1c(-c2nc3cc4c(cc3[nH]2)OC(F)(F)C(F)(F)O4)nc(C2CC2)n1C [Example I-8, 2-[2-Cyclopropyl-5-(ethylsulfonyl)-1-methyl-1H-imidazol-4-yl]-6,6,7,7-tetrafluoro-6,7-dihydro-1H-[1,4]dioxino[2,3-f]benzimidazole] | 100% |  |  |  |  | 90% | 100% | 100% |
| CCS(=O)(=O)c1c(-c2nc3cc4c(cc3n2C)OC(F)(F)C(F)(F)O4)nc(-c2cccc(C3(C#N)CC3)n2)n1C [Example I-28, 1-{6-[5-(Ethylsulfonyl)-1-methyl-4-(6,6,7,7-tetrafluoro-1-methyl-6,7-dihydro-1H-[1,4]dioxino[2,3-f]benzimidazol-2-yl)-1H-imidazol-2-yl]pyridin-2-yl}cyclopropanecarbonitrile] |  | 100% | 100% | 100% |  |  |  |  |
| CCS(=O)(=O)c1c(-c2nc3cc4c(cc3n2C)OC(F)(F)C(F)(F)O4)nc(-c2cccc(Br)n2)n1C [Example I-30, 2-[2-(6-Bromopyridin-2-yl)-5-(ethylsulfonyl)-1-methyl-1H-imidazol-4-yl]-6,6,7,7-tetrafluoro-1-methyl-6,7-dihydro-1H-[1,4]dioxino[2,3-f]benzimidazole] | 100% | 100% | 100% | 100% |  |  |  |  |
